Assay results reported in ChEMBL document CHEMBL1148727, “Discovery of 1,4-dihydroxy-2-naphthoate [corrected] prenyltransferase inhibitors: new drug leads for multidrug-resistant gram-positive pathogens” (2007).
In brackets after ≈: the same amount, converted by molar mass.

Tests used:
Type in all cases: functional
Mycobacterium avium = assay: Antibacterial activity against Mycobacterium avium Flamingo after 18 hrs by agar plate dilution method
[1] = system: Mycobacterium intracellulare; assay: Antibacterial activity against Mycobacterium intracellular ATCC 15984 after 18 hrs by agar plate dilution method; settings: ATCC 15984, 18 h
[2] = system: Mycolicibacterium fortuitum; assay: Antibacterial activity against Mycobacterium fortuitum NIHJ1615 after 18 hrs by agar plate dilution method
[3] = system: Mycolicibacterium smegmatis; assay: Antibacterial activity against Mycobacterium smegmatis Takeo after 18 hrs by agar plate dilution method
[4] = system: Mycobacterium tuberculosis; assay: Antibacterial activity against Mycobacterium tuberculosis H37Rv after 18 hrs by agar plate dilution method
Mycolicibacterium aurum = assay: Antibacterial activity against Mycobacterium aurum after 18 hrs by agar plate dilution method
Staphylococcus aureus [5] = assay: Antibacterial activity against methicillin-resistant Staphylococcus aureus Mu50 after 18 hrs by agar plate dilution method; settings: Mu50, 18 h
Enterococcus faecalis [6] = assay: Antibacterial activity against vancomycin-resistant Enterococcus faecalis NCTC-12201 after 18 hrs by agar plate dilution method
Enterococcus faecalis [7] = assay: Antibacterial activity against vancomycin-resistant Enterococcus faecalis NCTC-12203 after 18 hrs by agar plate dilution method
Staphylococcus aureus [8] = assay: Antibacterial activity against Staphylococcus aureus FDA209P after 18 hrs by agar plate dilution method
Staphylococcus aureus [9] = assay: Antibacterial activity against Staphylococcus aureus Smith after 18 hrs by agar plate dilution method
Pseudomonas aeruginosa = assay: Antibacterial activity against Pseudomonas aeruginosa 46001 by agar plate dilution method
Staphylococcus aureus [10] = assay: Antibacterial activity against methicillin-resistant Staphylococcus aureus after 18 hrs by agar plate dilution method
Staphylococcus aureus [11] = assay: Antibacterial activity against vancomycin-resistant Staphylococcus aureus 70 after 18 hrs by agar plate dilution method
Staphylococcus aureus [12] = assay: Antibacterial activity against methicillin-resistant Staphylococcus aureus 92-1191 after 18 hrs by agar plate dilution method
Staphylococcus aureus [13] = assay: Antibacterial activity against Linezolid and methicillin-resistant Staphylococcus aureus 06 after 18 hrs by agar plate dilution method
Staphylococcus aureus [14] = assay: Antibacterial activity against Staphylococcus aureus macrolide-resistance after 18 hrs by agar plate dilution method
Escherichia coli = assay: Antibacterial activity against Escherichia coli NIHJ JC2 by agar plate dilution method
Klebsiella pneumoniae = assay: Antibacterial activity against Klebsiella pneumoniae NCTN9632 by agar plate dilution method
Proteus mirabilis = assay: Antibacterial activity against Proteus mirabilis IFO3849 by agar plate dilution method

| SMILES | MIC (Mycobacterium avium) | MIC [1] | MIC [2] | MIC [3] | MIC [4] | MIC (Mycolicibacterium aurum) | MIC (Staphylococcus aureus [5]) | MIC (Enterococcus faecalis [6]) | MIC (Enterococcus faecalis [7]) | MIC (Staphylococcus aureus [8]) | MIC (Staphylococcus aureus [9]) | MIC (Pseudomonas aeruginosa) | MIC (Staphylococcus aureus [10]) | MIC (Staphylococcus aureus [11]) | MIC (Staphylococcus aureus [12]) | MIC (Staphylococcus aureus [13]) | MIC (Staphylococcus aureus [14]) | MIC (Escherichia coli) | MIC (Klebsiella pneumoniae) | MIC (Proteus mirabilis) |
| --- | --- | --- | --- | --- | --- | --- | --- | --- | --- | --- | --- | --- | --- | --- | --- | --- | --- | --- | --- | --- |
| C=CCN(C)CCCCCCCCOc1ccc(C(=O)c2ccc(Cl)cc2)c(O)c1 | 6.3 µg/mL (≈ 14.7 µM) | 6.3 µg/mL (≈ 14.7 µM) | 12.5 µg/mL (≈ 29.1 µM) | 12.5 µg/mL (≈ 29.1 µM) | 1.5 µg/mL (≈ 3.49 µM) | 6.3 µg/mL (≈ 14.7 µM) | > 12.5 µg/mL | > 12.5 µg/mL | > 12.5 µg/mL | > 12.5 µg/mL | > 12.5 µg/mL |  |  |  |  |  |  |  |  |  |
| CN(CCCOC/C=C/COc1ccc(C(=O)c2ccc(Cl)cc2)c(O)c1)CCc1ccc(F)cc1 |  |  |  |  | 12.5 µg/mL (≈ 24.4 µM) |  | 8 µg/mL (≈ 15.6 µM) | 8 µg/mL (≈ 15.6 µM) | 2 µg/mL (≈ 3.91 µM) | 4 µg/mL (≈ 7.81 µM) | 8 µg/mL (≈ 15.6 µM) | > 128 µg/mL | 4 µg/mL (≈ 7.81 µM) | 4 µg/mL (≈ 7.81 µM) | 4 µg/mL (≈ 7.81 µM) | 8 µg/mL (≈ 15.6 µM) | 4 µg/mL (≈ 7.81 µM) | > 128 µg/mL | > 128 µg/mL | > 128 µg/mL |
| NNC(=O)c1ccncc1 [ISONIAZID] | > 25 µg/mL | 12.5 µg/mL (≈ 91.1 µM) | 6.3 µg/mL (≈ 45.9 µM) | 12.5 µg/mL (≈ 91.1 µM) | 0.1 µg/mL (≈ 0.729 µM) | 6.3 µg/mL (≈ 45.9 µM) |  |  |  |  |  |  |  |  |  |  |  |  |  |  |
| CC(=O)NC[C@H]1CN(c2ccc(N3CCOCC3)c(F)c2)C(=O)O1 [LINEZOLID] |  |  |  |  |  |  |  |  |  |  |  | > 128 µg/mL |  |  |  | 32 µg/mL (≈ 94.9 µM) |  | 128 µg/mL (≈ 379 µM) | > 128 µg/mL | 128 µg/mL (≈ 379 µM) |
| CO[C@H]1/C=C/O[C@@]2(C)Oc3c(C)c(O)c4c(O)c(c(/C=N/N5CCN(C)CC5)c(O)c4c3C2=O)NC(=O)/C(C)=C\C=C\[C@H](C)[C@H](O)[C@@H](C)[C@@H](O)[C@@H](C)[C@H](OC(C)=O)[C@@H]1C [RIFAMPIN] | 3.1 µg/mL (≈ 3.77 µM) | 3.1 µg/mL (≈ 3.77 µM) | > 25 µg/mL | > 25 µg/mL | 0.2 µg/mL (≈ 0.243 µM) | 0.78 µg/mL (≈ 0.948 µM) |  |  |  |  |  |  |  |  |  |  |  |  |  |  |
| CN[C@H](CC(C)C)C(=O)N[C@H]1C(=O)N[C@@H](CC(N)=O)C(=O)N[C@H]2C(=O)N[C@H]3C(=O)N[C@H](C(=O)N[C@H](C(=O)O)c4cc(O)cc(O)c4-c4cc3ccc4O)[C@H](O)c3ccc(c(Cl)c3)Oc3cc2cc(c3O[C@@H]2O[C@H](CO)[C@@H](O)[C@H](O)[C@H]2O[C@H]2C[C@](C)(N)[C@H](O)[C@H](C)O2)Oc2ccc(cc2Cl)[C@H]1O [VANCOMYCIN] |  |  |  |  |  |  |  | > 128 µg/mL | > 128 µg/mL |  |  | > 128 µg/mL |  |  |  |  |  | > 128 µg/mL | > 128 µg/mL | > 128 µg/mL |
